Broadly, the IC50 is the concentration needed to halve the response being measured.

Results on 18 compounds are retold here after paper PMC9105583, “Stereoselective Synthesis and Anticancer Activity of 2,6-Disubstituted trans-3-Methylidenetetrahydropyran-4-ones” (Materials, 2022).

In one data set the test system is MCF-7 cells. The experiment in a line: MTT assay, metabolic activity (cytotoxicity). It is filed as cell-based, human. The conditions noted are these: mean ± SEM. As to the method: (§1) Metabolic activity by MTT assay
(§2) The MTT (3-([…])-2,5-diphenyl tetrazolium bromide) assay was performed to assess the cytotoxicity of the investigated compounds. Briefly, HL-60, MCF-7 and HUVEC cells were seeded in 24-well plates at density of 8 × 10^4/mL. After 24 h incubation, cells were treated with various concentrations of the compounds and incubated for another 24 h or 48 h. Then, the cells were incubated with MTT solution (100 µL; 5 mg/mL in PBS) for 1.5 h and centrifuged. The formazan product was dissolved in DMSO, and the absorption was measured using FlexStation 3 Multi-Mode Microplate Reader (Molecular Devices, LLC, San Jose, CA, USA) at 560 nm. Assays were performed twice in triplicate for each analog.
(§3) The cytotoxic activity of the obtained methylidenetetrahydropyran-4-ones was investigated in two cancer cell lines, human promyelocytic leukemia (HL-60) and breast cancer adenocarcinoma (MCF-7), and in healthy umbilical vein endothelial cells (HUVEC), for comparison. An anticancer drug, carboplatin, was used as a reference compound. Metabolic activity of the cells was assessed after 48 h incubation with various concentrations of the analogs (Table 6). Purity of all final compounds was determined on the basis of their ^1H NMR spectra (signal-to-noise ratio and presence of unidentified signals) and was at least 98%, in most cases even over 99%.

The subject of a further data set is HL-60 cells. The experiment in a line: MTT assay, metabolic activity (cytotoxicity). It is filed as cell-based, human. As to conditions: for IC50: 48 h incubation, MTT, mean ± SEM, read-out: IC50 HL-60. As to the method:
as §1, §2, §3
(Tetrazolium dyes change colour on reduction, which living cells bring about.)

For the next data set, the system named is HUVEC cells. Kind of data set: MTT assay, metabolic activity (cytotoxicity), normal cell line. The class given is cell-based, human. As to conditions: 48 h incubation, mean ± SEM. The procedure: as §1, §2, §3
The test system of data set [1] is HL-60 human leukemia cells. Set-up: method as in PMID 32019209. As to conditions: cited from earlier work.
Data set [2] deals with mouse lymphocytic leukemia cells (L1210). The arrangement: method as in PMID 18078344. As to conditions: cited from earlier work.
In data set [3] the test system is Ehrlich ascites carcinoma. Set-up: method as in PMID 3693116. As to conditions: cited from earlier work.
For data set [4], the system named is human cancer cell lines, including lymphoid leukemia L1210 and leukemia P388. The arrangement: method as in PMID 3693116. As to conditions: cited from earlier work.
Data set [5] in a line: Stability of the compound at room temperature. It is filed as physicochemical. The procedure:
Next, we made an attempt to transform the obtained 2-substituted-5-diethoxyphosphoryltetrahydropyran-4-ones 14a-d into target 2-substituted-5-methylidenetetrahydropyran-4-ones 15a-d, using Horner–Wadsworth–Emmons olefination. The reaction was carried out with 2 equivalents of K2CO3, 10 equivalents of formalin, THF as a solvent and room temperature for 3 h. Unfortunately, the obtained 3-methylidenetetrahydropyran-4-ones 15a-c,e, turned out to be unstable at room temperature and decomposed during column chromatography.

[6] abbreviates: Homo sapiens, MCF7, 48 h incubation.

Read-outs that look alike come from different tables or passages of the source.

With `C=C1C(=O)C[C@H](CC)O[C@H]1C(C)C` (relative stereo) [Analog 13a, Trans-6-ethyl-2-isopropyl-3-methylidenetetrahydro-4H-pyran-4-one], the IC50 in the data set with MCF-7 cells (setting [6]) stood at 20.4 ± 0.35 µM; in the data set with HL-60 cells (Homo sapiens, HL-60, 48 h), 21.3 ± 1 µM.
As to `N.N.O=C([O-])C1(C(=O)[O-])CCC1.[Pt+2]` [Carboplatin, carboplatin, reference compound], the IC50 was found to be 5.35 ± 0.05 µM in the data set with HUVEC cells, 3.76 ± 0.35 µM in the data set with MCF-7 cells (48 h incubation) and 2.53 ± 0.2 µM in the data set with HL-60 cells.
With `C=C1C(=O)C[C@H](c2ccccc2)O[C@H]1c1ccccc1` (relative stereo) [Analog 13i, Trans-3-methylidene-2,6-diphenyltetrahydro-4H-pyran-4-one], the IC50 in the data set with MCF-7 cells (setting [6]) was more than 200 µM; in the data set with HL-60 cells (Homo sapiens, HL-60, 48 h), 36 ± 1.41 µM.
The matching figures for `C=C1C(=O)C[C@H](CC)O[C@H]1CCCC` (relative stereo) [Analog 13b, Trans-2-butyl-6-ethyl-3-methylidenetetrahydro-4H-pyran-4-one]: 106.5 ± 0.5 µM and 39.15 ± 0.15 µM.
As to `C=C1C(=O)C[C@H](C(C)C)O[C@H]1c1ccccc1` (relative stereo) [Analog 13f, Trans-6-isopropyl-3-methylidene-2-phenyltetrahydro-4H-pyran-4-one], the IC50 with HUVEC cells (Homo sapiens, HUVEC) was found to be 11.9 ± 2.32 µM; with MCF-7 cells (setting [6]) it was 69.7 ± 2.16 µM; with HL-60 cells (Homo sapiens, HL-60, 48 h), 8.45 ± 0.05 µM.
Regarding `C=C1C(=O)C[C@H]([c-]2cccc2)O[C@H]1C(C)C.[Fe+2].c1cc[cH-]c1` (relative stereo) [Analog 13m, Trans-6-ferrocenyl-2-isopropyl-3-methylidenetetrahydro-4H-pyran-4-one], the IC50 in the data set on MCF-7 cells (48 h incubation) came to 5.73 ± 0.36 µM; with HL-60 cells, 3.87 ± 0.16 µM.
Turning to `C=C1C(=O)C[C@H](C(C)C)O[C@H]1CCCC` (relative stereo) [Analog 13e, Trans-2-butyl-6-isopropyl-3-methylidenetetrahydro-4H-pyran-4-one], the IC50 was more than 150 µM with MCF-7 cells (setting [6]) and 78.8 ± 5.25 µM in the data set with HL-60 cells (Homo sapiens, HL-60, 48 h).
For `C=C1C(=O)C[C@H](c2ccc(OC)cc2)O[C@H]1c1ccccc1` (relative stereo) [Analog 13l, Trans-6-(4-methoxyphenyl)-3-methylidene-2-phenyltetrahydro-4H-pyran-4-one], in that order: 203 ± 56 µM and 25 ± 0.94 µM.
Consider `C=C1C(=O)CC(C)(C)OC1C(C)C` (stereo not drawn) [6-isopropyl-2,2-dimethyl-5-methylidenetetrahydropyran-4-one], for which, in data set [1], the “apoptosis” value is on record as “induced apoptosis”, the “cell cycle” value is recorded as “arrest of the cell cycle in the G2/M phase” and the “cytotoxic activity” value is reported as “very high cytotoxic activity”.
In the case of `C=C1C(=O)C[C@H]([c-]2cccc2)O[C@H]1c1ccccc1.[Fe+2].c1cc[cH-]c1` (relative stereo) [Analog 13o, Trans-6-ferrocenyl-3-methylidene-2-phenyltetrahydro-4H-pyran-4-one], the IC50 in the data set on MCF-7 cells (48 h incubation) and in the data set with HL-60 cells was more than 100 µM each time.
For the compound `C=C1C(=O)C[C@H](c2ccc(OC)cc2)O[C@H]1C(C)C` (relative stereo) [Analog 13j, Trans-2-isopropyl-6-(4-methoxyphenyl)-3-methylidenetetrahydro-4H-pyran-4-one], the IC50 in the data set on HUVEC cells (Homo sapiens, HUVEC) is 4.25 ± 0.05 µM; with MCF-7 cells (setting [6]), 9.11 ± 0.02 µM; in the data set on HL-60 cells, 3.75 ± 0.07 µM; in the data set on HL-60 cells (Homo sapiens, HL-60, 48 h) it was less than 4 µM.
For the compound `C[C@H]1CCC/C=C\[C@H]2C=C[C@H](O)[C@H](CC(=O)O1)O2` [aspergillide C], the “cytotoxic activity” value in data set [2] is listed as “showed cytotoxic activity”.
Take `C=C1C(=O)[C@]2(C)C(=O)O[C@@]34C[C@H](C)C(C(=O)O)=C[C@@H]3CCC[C@@H](C)C[C@@H](C)[C@H]1OC24` (single isomer, unassigned; (+)) [(+)-okilactomycin]: the “in vivo activity” value in data set [3] was “in vivo activity”. In addition, the “in vitro cytotoxicity” value in data set [4] was “exhibits in vitro cytotoxicity”.
Turning to `C=C1C(=O)C[C@H](c2ccccc2)O[C@H]1CCCC` (relative stereo) [Analog 13h, Trans-2-buthyl-3-methylidene-6-phenyltetrahydro-4H-pyran-4-one], the IC50 was more than 150 µM with MCF-7 cells (48 h incubation) and 134 ± 1 µM with HL-60 cells.
For the compound `C=C1COC(c2ccc(OC)cc2)CC1=O` (stereo not drawn) [Analog 15d, 2-(4-Methoxyphenyl)-5-methylidenetetrahydro-4H-pyran-4-one], the concentration for half-maximal inhibition (IC50) is more than 200 µM with MCF-7 cells (setting [6]) and 163 ± 7.07 µM in the data set on HL-60 cells (Homo sapiens, HL-60, 48 h). In the data set on HL-60 cells (HL-60 and MCF-7, 48 h), the “cytotoxic activity” value was “practically inactive”. Further, the “stable for a prolonged period of time” value in data set [5] is “at least 7 days”.
In the case of “Trans-2-buthyl-6-ferrocenyl-3-methylidenetetrahydro-4H-pyran-4-one [Analog 13n]”, the values for the IC50 with MCF-7 cells (48 h incubation) and in the data set with HL-60 cells were more than 100 µM and 62.6 ± 0.61 µM, respectively.
Consider `C=C1C(=O)C[C@H](CC)O[C@H]1c1ccccc1` (relative stereo) [Analog 13c, Trans-6-ethyl-3-methylidene-2-phenyltetrahydro-4H-pyran-4-one], for which the IC50 in the data set with MCF-7 cells (setting [6]) amounted to 36 ± 0.41 µM; with HL-60 cells (Homo sapiens, HL-60, 48 h) it was 11.8 ± 0.15 µM.
The matching figures for `C=C1C(=O)C[C@H](c2ccc(OC)cc2)O[C@H]1CCCC` (relative stereo) [Analog 13k, Trans-2-butyl-6-(4-methoxyphenyl)-3-methylidenetetrahydro-4H-pyran-4-one]: more than 100 µM and more than 100 µM.
